The structures appear in SMILES notation. Where only a bound is given, the exact number is not on record here.

Usually melting point stands for the temperature of the solid-liquid transition. In turn, `Cc1ccccc1C(=O)NC(NC(=NC#N)Nc1cccnc1)C(Cl)(Cl)Cl` (centres undefined) showed a melting point of 126 to 128 °C.
The figure for `CN(C)CC1CCc2cc(NC(=O)c3ccc(-c4ccc(N)cc4)cc3)ccc2C1` (centres undefined) is 148 to 150 °C; for `Cc1oc(-c2ccccc2)nc1COc1ccc(Sc2nc(-c3ccccc3)c(CCC(=O)O)o2)cc1` it is 136 to 137 °C.
Next, `CC(O)(CCCl)c1ccc(-c2ccc(F)cc2)cc1` (centres undefined): 78 to 79 °C; `C[C@H](NC(=O)CS)C(=O)N1CCC[C@H]1C(=O)O`: 152 to 155 °C; `Cc1ccccc1Cn1c(=O)[nH]c2cc(Cl)cc(Cl)c2c1=O`: 274 to 276 °C.
Next, `CC(=O)c1ccc2c(c1)oc(=O)n2N1CCC(c2noc3cc(F)ccc23)CC1`: 152 to 154 °C.
In turn, `Nc1cc(=O)n(Cc2cccc(C(F)(F)F)c2)[nH]1` registered a melting point of 130 °C.
In turn, `Oc1ccc(N2CCN(c3ccncc3)CC2)cc1` showed a melting point of 288 to 290 °C.
In turn, `CC(C)(C)OC(=O)NCC(=O)Nc1c(C(=O)CC(=O)Nc2nccs2)cccc1C(F)(F)F` came in with a melting point of 166 °C.
Next, `CCCCCCCCCC(=O)COS(=O)(=O)c1ccc(Cl)cc1`: 51 to 51.5 °C; `Oc1ccc2cc(-c3cc4ccccc4s3)ccc2c1Cl`: 220 to 221 °C.
In turn, `CNC(C)c1ccc(C2CCC(N(C)C(=O)c3ccc(Cl)cc3)CC2)cc1` (centres undefined) returned a melting point of 153 to 155 °C.
Next, `CCC(=O)OC1=C(c2nnc(-c3ccccc3)o2)N(C)S(=O)(=O)c2ccccc21`: 143 to 146 °C; `COC(=O)C1=C(C)NC(C)=C(C(=O)OCc2ccc(OC)cc2)C1c1ccccc1[N+](=O)[O-]` (centres undefined): 152 °C; `S=C(Cl)c1cc(C(Cl)(Cl)Cl)c(Cl)cc1Cl`: 79 to 81 °C.
Next, `CCOC(=O)c1c(Cl)c(-c2ncc(Cl)cc2F)nn1C`: 77 to 79 °C; `O=P(Oc1ccc(S(=O)(=O)c2ccc(OP(=O)(c3ccccc3)c3ccccc3)cc2)cc1)(c1ccccc1)c1ccccc1`: 210 to 211 °C.
Next, `C=Cc1ccc([Si](C)(C)C)c(C(=O)NCC)c1Cl`: 127 to 128 °C; `ClC(Cl)(Cl)c1cccc2nnsc12`: 67 to 69 °C; `O=C(CC1CSCCC1=O)c1ccc(Cl)cc1` (centres undefined): 78 to 81 °C.
`COC(C(=O)O)c1c(Cl)cccc1Cl` (centres undefined): the melting point lay in the range of 95 to 96 °C.
The figure for `CC1C=CCCC1C(O)C(N)=O` (centres undefined) is 149 to 151 °C; for `CCCCC1CCC2(C)C(=CCC3C4CCC(=O)C4(C)CCC32)C1` (centres undefined) it is 84 to 86 °C; for `CC(=O)OCCCCN1CCC(CNC(=O)[C@@H]2CCCN2S(=O)(=O)c2ccc(Cl)c(COc3cccc4c(-n5ccnc5)cc(C)nc34)c2Cl)CC1` it is 86 °C.
The figure for `COc1ccc(CC(=O)NOCc2ccccc2)cc1` is 98 to 99 °C.
Next, `Cc1nc2ccccc2n1Cc1ccc(C(=O)NC2CCN(C(=O)OC(C)(C)C)CC2)cc1`: 77 to 79 °C; `CCOC(=O)c1cc(C)c(Cl)nc1Nc1ccc(I)cc1`: 144 to 146 °C; `O=S(=O)(NCCCCCCNc1nsc2nccn12)c1cccc2ccccc12`: 95 to 97 °C.
With `CCCNC(=O)c1ccsc1N=C(OCCC)OCCC`, the melting point was 57 to 58 °C.
The figure for `O=C(CNC(=O)c1cccc(Cl)c1)c1ccsc1` is 137 to 140 °C.
Next, `CN(C)S(=O)(=O)c1ccc2c(c1)C=C(C(=O)O)C(C(F)(F)F)O2` (centres undefined): 201 to 202 °C.
Turning to `COC(=O)Cc1cc(OC)ccc1C(C)=O`, the melting point is 74 to 76 °C.
Next, `Cc1c(O)c(C(C)(C)C)cc2c1CCC1C2CCC2(C)C(=O)CCC12` (centres undefined): 190 to 192 °C; `CC(C)(C)c1cc(-c2nc(Cl)nc(Cl)n2)cc(C(C)(C)C)c1O`: 178 to 179 °C.
`O=C(O)c1c(Cl)nc(-c2ccccc2)c2ccccc12`: the melting point stood at 208 °C.
The figure for `CCCCc1nn(-c2ccccc2C(F)(F)F)c(=O)n1Cc1ccc(-c2ccccc2S(=O)(=O)NC(=O)C(F)(F)F)cc1` is 125 to 127 °C; for `NC(CO)c1ccc(-c2ccc(SC(F)F)cc2)cc1` (centres undefined) it is 108 to 110 °C.
In turn, `CC(C(=O)O)c1ccc(N2CC3=C(CC=CC3)C2=O)cc1` (centres undefined) returned a melting point of 220 to 222 °C.
Compound `CC(C)(C)NS(=O)(=O)c1sc([Si](C)(C)C)cc1C(F)=C(F)C(F)(F)F` showed a melting point of 92 to 94 °C.
Compound `CCCCCCCCCCN1C(=O)C2CC2(c2ccc(N)cc2)C1=O` (centres undefined) came in with a melting point of 92 to 94 °C.
Next, `CCCCc1nn(-c2ccccc2C(F)(F)F)c(=O)n1Cc1ccc(-c2ccccc2S(=O)(=O)NC(C)(C)C)cc1`: 168 to 170 °C.
The figure for `COc1cc2cnc(Cl)nc2cc1OC` is 237 to 238 °C.
Next, `O=C(NCCO)c1cnc(NCCO)cc1Nc1ccc(I)cc1F`: > 250 °C; `Cc1nnnn1CCCC(=O)O`: 71 to 72.5 °C; `Cn1c(=O)c2c(ncn2Cc2noc(CCl)n2)n(C)c1=O`: 146 to 148 °C.
`CCOC(=O)c1ccc(N(C(C)=O)C(=O)c2ccc(C(=O)C(C)(C)C)cc2)cc1` came in with a melting point of 91 to 94 °C.
On to `Cc1nc(NC(=O)Cc2ccccc2)sc1C(=O)NCc1ccccc1`, for which the melting point lay in the range of 63 to 65 °C.
Next, `CN(C(CCn1c(=O)cc(C(F)(F)F)[nH]c1=O)C(=O)NO)S(=O)(=O)c1ccc(Oc2ccc(F)cc2)cc1` (centres undefined): 163 to 164 °C.
Turning to `COC(=O)C#CC(=O)c1ccc(SC)cc1`, the melting point was 74 to 76 °C.
`CCC1(C)C(=O)c2c(Cl)cc(C)c(C)c2C1=O` (centres undefined): the melting point stood at 97 °C.
For the compound `Cc1ccc(N2CCC(CCOc3ccc(-c4nc(C(C)C)no4)cc3)CC2)nn1`, the melting point was 135 °C.
Next, `C[Si](C)(Oc1ccc(N)cc1)O[Si](C)(C)Oc1ccc(N)cc1`: 56 to 57 °C; `COc1cc(N)c(Cl)cc1C(=O)NCC1CCN(CCCS(=O)(=O)Cc2ccc(Cl)cc2)CC1`: 175 to 177 °C; `COC(=O)/C=C/n1cnc2c(C(C)C)cc(C(C)C)cc2c1=O`: 102 to 103 °C.
Next, `Clc1ccccc1-c1nc2cc(Cn3ccnc3)ccc2[nH]1`: 115 °C; `CCC(=O)c1sc(Oc2ccc3c(c2)OCO3)c2c1CCc1cnn(C)c1-2`: 99 to 100 °C; `Oc1cc(-c2ncnc(C(F)(F)F)c2Cl)c(F)cc1Cl`: 130 to 132 °C.
The figure for `CC(=O)c1ccc(OC2CCN(C(=O)OC(C)(C)C)CC2)cc1F` is 72 to 73 °C; for `COc1cccc(CNC(=O)c2nc3ccccc3c(=O)[nH]2)c1` it is 186 to 189 °C.
`O=C1N[C@H]2OC(c3ccccc3)=N[C@@H]12` came in with a melting point of 159 °C.
Next, `O=C1N(Cc2noc(C3CC3)n2)c2cccc(Cl)c2C12COc1cc3c(cc12)OCO3` (centres undefined): 180 to 182 °C; `CS(=O)(=O)Nc1ccc(OC[C@@H]2CO2)cc1`: 106 to 108 °C.
The compound `OC(CCCN1CCN(c2noc3ccccc23)CC1)c1ccc(F)cc1` (centres undefined) showed a melting point of 142 to 144 °C.
